This note sets out measurements from patent US20170006866A1, “PHYTOSANITARY COMPOSITION” (INSTITUT NATIONAL DE LA RECHERCHE AGRONOMIQUE-INRA, priority 2014, published 2017).

SMILES strings stand for the structures.

Common to all, as to type: in vivo
Series [1] deals with Myzus persicae. The series can be described thus: Analysis of repellent effect: choice test between control Ap3 medium and test medium, phagostimulation index. To be noted: Myzus persicae larvae, doses 0 to 1 mM in Ap3 medium. An excerpt:
a) Analysis of repellent effect: the method used is that developed by Yvan Rahbe (Rahbé & Febvay (1993) Entomologia Experimentalis et Applicata 67: 149-160; Chen (1996) Thesis submitted to Institut National des Sciences Appliquées, Lyon, France: 158 p) within the scope of research on the chemical determinants of the resistance of plants to various species of aphids (Aphis gossypii, Acyrthosiphon pisum), and adapted to the green aphid Myzus persicae.
The objective is to evaluate the attractive or repellent nature of a candidate molecule, at different concentrations, either with respect to control base medium (dose “0”), or with respect to another substance. […]
The medium (35 μl) is poured between two Parafilm® membranes stretched onto an Eppendorf® cone. […] The following morning, the number of aphids fixed on each medium is then recorded. […] A phagostimulation index, representing the degree of appetence of the test medium for the aphid, is calculated as follows: […]

Series [2] concerns Myzus persicae. The series is described as follows: Toxicity on larval growth (cumulative larval mortality on supplemented Ap3 medium), green peach aphid. Particulars: larval growth D1-D7. The method, then: (§1) b) Measurement of the toxicity of chicoric acid or caftaric acid on larval growth of the green peach aphid (Myzus persicae) and the pea aphid (Acyrthosiphon pisum)
(§2) The objective is to quantify the toxic effect of chicoric acid or caftaric acid on the aphid for the period of larval growth thereof, i.e. 8 to 10 days for Myzus persicae and Acyrthosiphon pisum at 19° C. The molecule is added at different concentrations to the Ap3 control nutrient medium. The dose “0” corresponds to Ap3 medium alone.
(§3) The medium (75 μl) is poured between two UV-sterilized Parafilm® stretched onto a cylindrical PVC support (h=1.5 cm, d=2 cm), under sterile conditions.
(§4) On the Day D0, 20 neonate larvae are deposited inside the cylinder, which is then turned over and applied to a square of Parafilm©. The dishes are placed in filtered light (16 hours day/8 hours night) and in a chamber at 19° C. The fixation percentage is recorded after 1 hour as a short-term phagostimulation indicator and to check that no anomaly occurred during aphid deposition. The larval mortality is recorded daily at the end of the day. […] On the day of the imaginal moult thereof, the aphids having reached the adult aptera stage are deposited successively on a precision balance (d=0.01 mg) and the cumulative weights are recorded for each concentration of each of the two molecules tested. The individual weights are calculated subsequently. […]

For another series, the system named is Acyrthosiphon pisum. The series is described as follows: Toxicity on larval growth (cumulative larval mortality on supplemented Ap3 medium), pea aphid. How it is done:
as §1, §2, §3, §4

In the case of `O=C(/C=C/c1ccc(O)c(O)c1)O[C@@H](C(=O)O)[C@@H](OC(=O)/C=C/c1ccc(O)c(O)c1)C(=O)O` [chicoric acid, dicaffeyl tartaric acid], the “dose from which a highly significant repellent effect is displayed” value in the series with Myzus persicae [1] (15 hours at 19° C.) was no less than 62.5 µM. Besides, the “repellent effect (result in words)” value in the series with Myzus persicae [1] is given as “significant repellent effect”. In addition, the larval mortality was roughly 80% with Myzus persicae [2] (from 0.125 mM in Ap3 medium) and 100% in the series on Myzus persicae [2] (from 0.25 mM in Ap3 medium). Besides, the “dose from which a very significant toxic effect (p<0.001) is observed” value with Acyrthosiphon pisum (Acyrthosiphon pisum larval growth) is no less than 0.5 mM. Moreover, the mortality at 500 µM with Acyrthosiphon pisum (Acyrthosiphon pisum, read-out: larval mortality) was greater than 80%.
